Source: patent publication US20190025313A1, “TREATMENT OF TUMORS INCORPORATING MUTANT ISOCITRATE DEHYDROGENASE” (Agios Pharmaceuticals, Inc., priority 2015, published 2019)

How the values were obtained:
Format in all cases: cell-based
mIDH1 TF1 cells = test: Metabolic activity (ATP fold-change) and rescue in mIDH1 TF1 cells; settings: for drop in metabolic activity / rescue of brequinar-induced drop in metabolic activity: Brequinar 2 μM; for drop in metabolic activity: ATP fold-change day 3 over day 0
Description: (§1) TF1-pLVX (wildtype) cells were pLVX plated at 20 k/ml, 90 μl/well while TF1/R132H27 (mIDH1) and TF1/R140Q11 (mIDH2) cells were plated at 80 k/ml, 90 μl/well in RPMI, 10% FBS, G418 and GM-CSF. Test compound was added on day 0 and CellTiter-Glo, assay (Promega) was performed on day 3/4 and 7. Medium was not changed during 7-day culture.
(§2) Data was expressed as ATP fold-change: day 3 over day 0.

mIDH2 TF1 cells = test: Metabolic activity (ATP fold-change) and rescue in mIDH2 TF1 cells; settings: for drop in metabolic activity / rescue of brequinar-induced drop in metabolic activity: Brequinar 2 μM; for drop in metabolic activity: ATP fold-change day 3 over day 0
Description: as §1, §2

[1] = tested on: TF1/R132H27 (mIDH1) cells; test: Proliferation assay (CellTiter-Glo) of mutant IDH1 TF1 cells; settings: Homo sapiens, TF-1, mutant IDH1 (R132H) TF1 cells, read-out: IC50, inhibition of proliferation
Description: (§3) Proliferation Assay of Wild Type and Mutant IDH Cell Lines
as §1

[2] = tested on: TF1/R140Q11 (mIDH2) cells; test: Proliferation assay (CellTiter-Glo) of mutant IDH2 TF1 cells; settings: Homo sapiens, TF-1, mutant IDH2 (R140Q) TF1 cells, read-out: IC50, inhibition of proliferation
Description: as §3, §1

TF1 cells [3] = test: Proliferation assay, cell line not specified (IC90 at day 7); settings: Homo sapiens, TF-1, 168 h, cell line not stated
Description: as §1, §2

TF1 cells [4] = test: Metabolic activity (ATP fold-change) in methotrexate treated TF1 cells; settings: FIG. 3
Excerpt: Metabolic activity was rescued in mIDH1 and mIDH2 TF1 cells with 3-day folinic acid supplement.

[5] = 3-day folinic acid supplement, methotrexate treated, FIG. 3
[6] = uridine 8 μM, 3-day supplement, FIG. 2A

Structure (SMILES): Nc1nc(=O)c2c([nH]1)NCC(CNc1ccc(C(=O)N[C@@H](CCC(=O)O)C(=O)O)cc1)N2C=O (mixture of isomers) [folinic acid]
- rescue of methotrexate-induced drop in metabolic activity (mIDH1 TF1 cells; [5]): rescued
- rescue of methotrexate-induced drop in metabolic activity (mIDH2 TF1 cells; [5]): rescued

Structure (SMILES): Cc1c(-c2ccc(-c3ccccc3F)cc2)nc2ccc(F)cc2c1C(=O)O [Brequinar, brequinar]
- IC50 [1]: 1300 nM
- IC50 [2]: 1600 nM
- drop in metabolic activity (mIDH1 TF1 cells; FIG. 2A): 73%
- drop in metabolic activity (mIDH1 TF1 cells; FIG. 2B): 77%
- drop in metabolic activity (mIDH2 TF1 cells; FIG. 2A): 52%
- drop in metabolic activity (mIDH2 TF1 cells; FIG. 2B): 47%
- IC90 (TF1 cells [3]): ~2000 nM

Structure (SMILES): CN(Cc1cnc2nc(N)nc(N)c2n1)c1ccc(C(=O)N[C@@H](CCC(=O)O)C(=O)O)cc1 [methotrexate]
- metabolic activity expressed as ATP fold-change (day 3 over day 0) (TF1 cells [4]): drop in metabolic activity

Structure (SMILES): O=c1ccn([C@@H]2O[C@H](CO)[C@@H](O)[C@H]2O)c(=O)[nH]1 [uridine]
- rescue of brequinar-induced drop in metabolic activity (mIDH1 TF1 cells; [6]): rescued
- rescue of brequinar-induced drop in metabolic activity (mIDH1 TF1 cells; uridine 1,000 μM, FIG. 2B): rescued
- rescue of brequinar-induced drop in metabolic activity (mIDH2 TF1 cells; [6]): rescued
- rescue of brequinar-induced drop in metabolic activity (mIDH2 TF1 cells; uridine 1,000 μM, FIG. 2B): rescued
